Assay results published in patent US6184254A, “Methods of identifying modulators of perivascular sensory nerve Ca2+ receptors” (priority 1998, dated 2001).
“Also recorded” adds a separate entry of the source.

Legend:
[1] = system: Ca^2+-induced relaxation of mesenteric resistance arteries; assay: Inhibition of Ca2+-induced relaxation of mesenteric resistance arteries by antagonists or denervation; design: species or system rat
[2] = system: CGRP nerve fiber density of mesenteric resistance arteries; assay: CGRP nerve staining/density after capsaicin-induced sensory denervation; assay type: in vivo, rat
Description: (§1) Pregnant rats are received at 15 days gestation and pups are delivered in a vivarium. On the first and second days of life, each pup is lightly anesthetized with halothane and given s.c. injection of capsaicin (50 mg/kg) or vehicle. The rats are then kept until 7-9 weeks of age at which time they are euthanized and tissue isolated. Sub-acute regional nerve destruction is performed. […] The would is closed and the rats are allowed to recover for three days following which branches leading from the treated vessel segments are harvested for study. For each procedure, two methods are used to verify denervation of the arteries. One is a functional assay in which arteries isolated from sham or denervated rats are electrically stimulated under conditions that selectively activate perivascular sensory dilator nerves; the second is an immunocytochemical approach.
At 8 weeks of age the rats were killed and whole mount preparations of mesenteric resistance arteries were prepared, stained with polyclonal anti-calcitonin gene related peptide (CGRP), which is the primary sensory nerve transmitter, and quantified using stereomorphologic methods (Schmidt-Schoenbein et al., 1977).

perivascular CaR = assay: Perivascular CaR expression after capsaicin-induced denervation; assay type: in vivo, rat; conditions: KK3 antiserum
Description: as §1, with “One is a functional assay in which arteries isolated from sham or denervated rats are electrically stimulated under conditions that selectively activate perivascular sensory dilator nerves; the second is an immunocytochemical approach.” left out
The effect of sensory denervation on perivascular nerve CaR expression is assessed using western blot analysis. […] The membranes are then stained with monoclonal anti-parathyroid CaR (1:7500) and anti-smooth muscle α-actin, then visualized using the enhanced chemiluminescence, and quantified using laser densitometry. The relative expression of CaR in each sample is then assessed as the ratio of the density of CaR staining; α-actin staining. […]
The results have been presented (Mupanomunda et al., 1997). Additional studies quantify the effect of capsaicin-induced denervation on CaR content using western blot analysis.

neurogenic inflammation = conditions: denervation and desensitization by treatment with capsaicin; cited from earlier work

With `COc1cc(CNC(=O)CCCC/C=C/C(C)C)ccc1O` [capsaicin] the “effect on Ca2+-induced relaxation” value ([1]; 20 minutes pre-treatment, 10 μM capsaicin) was “inhibited/reversed”, the “effect on Ca2+-induced relaxation” value ([1]; chronic capsaicin-induced sensory denervation) was “attenuates; also recorded: significantly attenuated” and the “effect on staining for CGRP” value ([2]; capsaicin denervation) was “significantly decreases”. For the same compound, the “reduction in CGRP nerve fiber density” value ([2]; neonatal capsaicin (50 mg/kg s.c.), 8 weeks of age) was 40%, the “effect on staining for perivascular CaR” value (perivascular CaR) was “significantly decreases” and the “effect of treatment on neurogenic inflammation” value (neurogenic inflammation) was “prevented”.
